Results: patent publication US8101411B2, “Method for production of corosolic acid in suspension culture of plant cells” (Samyang Genex Corporation, priority 2005, dated 2012)

How the values were obtained:
[1] = test system: absorption of glucose into cells; conditions: similar to that of insulin; Chem Pharm. Bull. 41(12): 2129-2131, 1993; cited from earlier work
[2] = cited from earlier work
[3] = test system: suspension-cultured cells of Eriobotrya japonica; experiment: Addition of inducing agent (elicitor) at the production stage of two-stage high cell-density suspension culture; format: cell-based; conditions: for Cell Dry Weight / Productivity of Corosolic acid / Productivity of Corosolic acid (% DW): 14 days
Description: The cell dry weight was obtained by filtering sampled plant cell culture through Watman no. 4 filter paper using a Buchner funnel, and oven drying at a temperature of 60° C. for 24 hours. […] The % DW (Dry Weight) was calculated from the calculated concentration of corosolic acid. […] The volumetric productivity (mg/L) was calculated by multiplying the calculated % DW content with the cell concentration (g/L, DW) in cell culture. 50 ml of the cell lines which were obtained in EXAMPLE 1-2 were cultured in LS medium with addition of 10 μM of NAA and 1 μM of BA, and collected after 7 days, and 50 ml of 2× concentration of mB5 medium were mixed and cultured in a 250 ml flask. […] The Eriobotrya japonica cells were cultured according to the method of Example 3,except that the concentration of sucrose added to the mB5 medium as the carbon source at the production stage, and the inoculation ratio of Eriobotrya japonica cell were varied as in Table 7. […] In the two-stage culture by using high cell-density culture of Example 4, 6% of sucrose was added to mB5 medium at the production stage, and the inoculated amount was 6 g/L cell dry weight.

[4] = Methyl jasmonate 400 μM, added at 3-day culture
[5] = Sodium butyrate 1.0 mM, added at 3-day culture
[6] = AgNO3 2 μM, added at 0-day culture
[7] = AgNO3 4 μM, added at 0 day culture
[8] = AgNO3 6 μM, added at 0-day culture

## corosolic acid
[1]
  activity on absorption of glucose into cells: promoting a rapid absorption of glucose into cells
[2]; clinical demonstration, Journal of Ethnopharmacology 87: 115 117, 2003
  effect on blood-sugar levels: rawer blood-sugar levels
[2]; in vivo
  side effects: without any side effects

## CC/C=C\CC1C(=O)CCC1CC(=O)OC (stereo not shown) [Methyl jasmonate]
[3]; 400 μM methyl jasmonate, versus control
  amount of corosolic acid increased by: 100%
[3]; [4]
  Cell Dry Weight: 22.72 g/L
  Productivity of Corosolic acid: 1913.16 mg/L
  Productivity of Corosolic acid (% DW): 8.42 % DW

## CCCC(=O)[O-].[Na+] [Sodium butyrate]
[3]; 1 mM sodium butylate, versus control
  amount of corosolic acid increased by: 100%
[3]; [5]
  Cell Dry Weight: 24.54 g/L
  Productivity of Corosolic acid: 2081.13 mg/L
  Productivity of Corosolic acid (% DW): 8.48 % DW

## O=[N+]([O-])[O-].[Ag+] [AgNO3, silver nitrate]
[3]; 4 μM added, versus control
  maximal concentration of cell increased by: 45%
[3]; 2-6 μM added to the culture medium, versus control
  productivity of the suspension-cultured cell: increased the productivity
[3]; [6]
  Productivity of Corosolic acid: 1152.07 mg/L
  Productivity of Corosolic acid (% DW): 4.42 % DW
[3]; AgNO3 2 μM, added at 0-day culture, mB5, 6% sucrose, 6 g/L inoculum
  Cell Dry Weight: 26.05 g/L
[3]; [7]
  Cell Dry Weight: 25.66 g/L
  Productivity of Corosolic acid: 1551.78 mg/L
  Productivity of Corosolic acid (% DW): 6.05 % DW
[3]; [8]
  Cell Dry Weight: 24.57 g/L
  Productivity of Corosolic acid: 1335.86 mg/L
  Productivity of Corosolic acid (% DW): 5.44 % DW
